Like-named read-outs stand apart in the source and are kept apart here. Where a SMILES comes first, the peptide text is derived from it. [ ]: non-standard residue; d: D form. The star is where a group is joined. Palmitoyl = CCCCCCCCCCCCCCCC(=O)*; Lauroyl = CCCCCCCCCCCC(=O)*; 12Ado = NCCCCCCCCCCCC(=O)O; Decanoyl = CCCCCCCCCC(=O)*; Octanoyl = CCCCCCCC(=O)*
What was measured:
[1] = tested on: S. mutans; assay: microbe, parasite or virus in culture; type: cell-based, Streptococcus mutans
Method: Staphylococci, Bacilli, Escherichia, Pseudomonas, Acinetobacter, Salmonella and Klebsiella species were grown in Luria Bertani broth (LB; 5 gr/l NaCl, 5 gr/l yeast extract, 10 gr/l tryptone). Enterococci and E. coli ML-35p were grown in Tryptic Soy Broth (TSB). Listeria and Streptococci were grown in Brain Heart Infusion (BHI). All bacteria were grown over-night at 37 °C with shaking. S. mutans 35668 plated on BHI agar for enumeration was grown for 48 hr. S. mutans UA159 was grown in 5% CO2 enriched atmosphere. Fusobacterium and Porphyromonas were grown in Wilkins-Chalgren growth medium and an anaerobic atmosphere.
Minimal inhibitory concentration (MIC) was determined using the microdilution assay. Mid-log-phase bacteria at 5 × 10^5 CFU/ml were incubated in a 96-well plate with serial two-fold dilutions of the tested compound for 18–24 hr at 37 °C (final volume of 200 µl). O.D. at 620 nm was measured (Synergy HT, BioTek Instruments, Winooski, VT, USA), and the MIC was determined as the lowest concentration for which no increase in O.D. was detected.

[2] = tested on: S. mutans ATCC 35668; assay: Bactericidal kinetics (time-kill); type: cell-based, Streptococcus mutans; conditions: time-kill kinetics in BHI
Method: Bactericidal kinetics was assessed by incubating 5 × 10^5 CFU/ml of mid-log-phase bacteria with the OAK for 3 hr at 37 °C with shaking. Aliquots were taken at t = 0, 0.5, 1, 2 and 3 hr, subjected to serial 10-fold dilutions in saline (NaCl = 0.85%) and plated for enumeration after 24–48 hr incubation at 37 °C.

[3] = tested on: S. mutans ATCC 35668 biofilm; assay: Anti-biofilm activity on pre-formed biofilm; type: cell-based, Streptococcus mutans; conditions: ≥0.5 mM, within one hour of exposure, inoculum 10^9 CFU/ml
Method: Anti-biofilm activity was evaluated against established biofilms in 96-well plates as follows. 200 µl of mid-log-phase S. mutans 35668 at 5 × 10^5 CFU/ml in BHI containing 2% sucrose were placed in each well, and plates were incubated for 24 hr at 37 °C without shaking. Unattached cells were removed by decanting the plates and biofilms were washed three times with milliQ water. Solutions of the tested compounds were placed on the biofilms for up to 3 hr at 37 °C without shaking. Plates were decanted in 0.5 hr intervals and biofilms were washed three times with milliQ water to remove any compound residues. Biofilms were scraped from the bottom of the wells, suspended in BHI and sonicated for 5 min in a sonication bath, subjected to serial 10-fold dilutions in saline and plated on BHI agar for enumeration.

[4] = Hydrophobicity by C18 RP-HPLC elution; type: physicochemical; conditions: chromatographic, RP-HPLC C18 (Vydac), flow 2 ml/min, linear acetonitrile gradient 1%/min
Method: OAKs were synthesized in-house (433 A Peptide Synthesizer; Applied Biosystems, Foster City, CA, USA) by the solid-phase method using 9-fluorenylmethyloxycarbonyl (Fmoc) active-ester chemistry on 4-methylbenzhydrylamine (MBHA) resin. OAKs were then deprotected and cleaved from the resin using trifluoroacetic acid:H2O (95:5) and purified to >95% chromatographic homogeneity by reverse phase high performance liquid chromatography (RP-HPLC) using C18 column (Vydac), a flow rate of 2 ml/min and a linear acetonitrile gradient of 1%/min (Alliance; Waters, Milford, MA, USA). Peaks identity was verified by mass-spectrometry (Xevo G2 Tof; Waters, Milford, MA, USA). Purified OAKs were then lyophilized and kept as dry powder at −20 °C.

[5] = tested on: GPB and GNB; assay: Effect observed at low concentrations, analog series; type: cell-based; conditions: summary of this and previous studies
Method: Table 2 Modulating biophysical properties of a core sequence by conjugating an N-terminal acyl. | column: Effect observed at low concentrations (<3 µM)

[6] = tested on: E. coli; conditions: microdilution; cited from earlier work
Source text: Table 2 Modulating biophysical properties of a core sequence by conjugating an N-terminal acyl. | column: MIC^c (µM) / E.c.

[7] = under similar conditions; increased with increasing hydrophobicity; cited from earlier work
[8] = tested on: bacteria; conditions: cited from earlier work
Source text: A variety of strategies were proposed to generate chemical mimics of AMPs to alleviate complications associated with peptide drugs, [31]. AMP-mimics may also be beneficial in helping to improve understanding the complex molecular basis for AMPs function(s) owing to their relative molecular/structural simplicity. Namely, while charge and hydrophobicity represent most critical factors influencing AMP properties, it is often challenging to identify the respective optimal proportions for controlling potency or selectivity. For instance, excess hydrophobicity might promote self-assembly in aque ...

Row | higher potency (MIC) than C14KKc12K ([1]; MIC of CHX versus C14KKc12K on S. mutans) | MIC ([1]; Streptococcus mutans, microdilution, BHI, 18–24 hr, 37 °C) | SMILES | multiples of MIC at which bactericidal [2] | killing of the initial inoculum in preformed biofilm [3] | MIC [1] | H, hydrophobicity, defined as % acetonitrile eluent in C18 HPLC column [4] | Effect observed at low concentrations (<3 µM) [5] | MIC E.c. [6] | binding affinity to LPS [7] | antibacterial activity [8]
1 | ~3 fold | 0.3 µM | [H]/N=C(\N/C(=N/[H])NCCCCCCNC(=N)NC(=N)Nc1ccc(Cl)cc1)Nc1ccc(Cl)cc1 [CHX, chlorhexidine, reference compound] | 40 multiples of its MIC | > 99% |  |  |  |  |  | 
2 |  |  | CCCCCCCCCC(=O)N[C@@H](CCCCN)C(=O)N[C@@H](CCCCN)C(=O)NCCCCCCCCCCCC(=O)N[C@@H](CCCCN)C(N)=O [C10KKc12K] (Decanoyl-KK[12Ado]K-NH2) |  |  | 6.25 µM | 46% | Weak growth inhibition of some GPB and transient membrane damages including partial depolarization of CM (slight delay in GNB growth) | >50[40] µM | lower than that of C14KKc12K | essentially inactive
3 |  |  | NCCCC[C@H](NC(=O)CCCCCCCCCCCNC(=O)[C@H](CCCCN)NC(=O)[C@@H](N)CCCCN)C(N)=O [H-KKc12K-NH2] (H-KK[12Ado]K-NH2) |  |  | >50 µM | 27% | Not observed (normal growth) | >50[40] µM |  | inactive
4 |  |  | CCCCCCCCCCCC(=O)N[C@@H](CCCCN)C(=O)N[C@@H](CCCCN)C(=O)NCCCCCCCCCCCC(=O)N[C@@H](CCCCN)C(N)=O [C12KKc12K] (Lauroyl-KK[12Ado]K-NH2) |  |  | 1.56 µM | 51% | Impairing membrane damages leading to a bacteriostatic mode of action in GPB; OM permeabilization & delayed growth in GNB | 16[40] µM | lower than that of C14KKc12K | 
5 |  |  | CCCCCCCC(=O)N[C@@H](CCCCN)C(=O)N[C@@H](CCCCN)C(=O)NCCCCCCCCCCCC(=O)N[C@@H](CCCCN)C(N)=O [C8KKc12K] (Octanoyl-KK[12Ado]K-NH2) |  |  | 50 µM | 41% | Weak perturbations of GNB outer membrane (normal growth) | >50[40] µM | lower than that of C14KKc12K | essentially inactive
6 |  |  | CCCCCCCCCCCCCCCC(=O)N[C@@H](CCCCN)C(=O)N[C@@H](CCCCN)C(=O)NCCCCCCCCCCCC(=O)N[C@@H](CCCCN)C(N)=O [C16KKc12K] (Palmitoyl-KK[12Ado]K-NH2) |  |  | 1.56 µM | 62% | Trend reversal (reduced potency) due to excess hydrophobicity as self-assembly approaches the critical aggregation concentration | 25[24] µM |  | 

Reference: article PMC5438364, “A broad-spectrum bactericidal lipopeptide with anti-biofilm properties” (Scientific Reports, 2017)
